The source of these data is ChEMBL document CHEMBL3400085, “New cytochalasins from medicinal macrofungus Crodyceps taii and their inhibitory activities against human cancer cells” (Bioorg Med Chem Lett, 2015).

Test system in the first experiment: not listed separately
Briefly: Cytotoxicity against human 95-D cells assessed as inhibition of proliferation by SRB method. The experiment is classed as functional, cell-based.
Conditions: not given
For orientation: In SRB staining, fixed cells bind dye roughly in proportion to their protein.
What is called IC50 is the concentration needed to halve the response being measured. As for `CC1=C(C)[C@H]2[C@H](Cc3ccccc3)NC(=O)[C@]23[C@H](O)/C=C/[C@H](C)C(=O)[C@@H](C)C/C=C/[C@H]3C1=O`, the IC50 is 23.7 µM.
Same read-out and setting: as for `CC1=C(C)[C@H]2[C@H](Cc3ccccc3)NC(=O)[C@]23[C@H](O)/C=C/[C@@](C)(O)C(=O)[C@@H](C)C/C=C/[C@H]3[C@@H]1O` [DEACETYLCYTOCHALASIN C], the figure is 3.67 µM; as for `C=C1[C@@H](C)[C@H]2[C@H](Cc3ccccc3)NC(=O)[C@]23[C@H](O)/C=C/[C@@](C)(O)C(=O)[C@@H](C)C/C=C/[C@H]3[C@@H]1O` [ZYGOSPORIN D], 4.04 µM.
The same measure, in the same setting: next, `CC1=C(C)[C@H]2[C@H](Cc3ccccc3)NC(=O)[C@]23[C@H](O)/C=C/[C@H](C)C(=O)[C@@H](C)C/C=C/[C@H]3[C@@H]1O`: 26 µM.
`CC1=C[C@@H]2/C=C/C[C@H](C)C(=O)[C@](C)(O)/C=C/[C@@H](O)[C@]23C(=O)N[C@@H](Cc2ccccc2)[C@@H]3[C@H]1C`: the IC50 is 20.7 µM.

For a further experiment, the system named is A549. Kind of experiment: Cytotoxicity against human A549 cells assessed as inhibition of proliferation by SRB method.
Conditions: not given
The experiment is classed as functional, cell-based.
`CC1=C(C)[C@H]2[C@H](Cc3ccccc3)NC(=O)[C@]23[C@H](O)/C=C/[C@H](C)C(=O)[C@@H](C)C/C=C/[C@H]3C1=O`: the IC50 came to 32.3 µM.
In the case of `CC1=C(C)[C@H]2[C@H](Cc3ccccc3)NC(=O)[C@]23[C@H](O)/C=C/[C@@](C)(O)C(=O)[C@@H](C)C/C=C/[C@H]3[C@@H]1O` [DEACETYLCYTOCHALASIN C], the IC50 worked out at 13.6 µM.
On the same count and under the same terms, as for `C=C1[C@@H](C)[C@H]2[C@H](Cc3ccccc3)NC(=O)[C@]23[C@H](O)/C=C/[C@@](C)(O)C(=O)[C@@H](C)C/C=C/[C@H]3[C@@H]1O` [ZYGOSPORIN D], the figure is 16.7 µM.
Same read-out and setting: as for `CC1=C(C)[C@H]2[C@H](Cc3ccccc3)NC(=O)[C@]23[C@H](O)/C=C/[C@H](C)C(=O)[C@@H](C)C/C=C/[C@H]3[C@@H]1O`, the figure is 17.1 µM; as for `CC1=C[C@@H]2/C=C/C[C@H](C)C(=O)[C@](C)(O)/C=C/[C@@H](O)[C@]23C(=O)N[C@@H](Cc2ccccc2)[C@@H]3[C@H]1C`, 19.9 µM.

Test system in a further experiment: not listed separately
Kind of experiment: Cytotoxicity against human HL-7702 cells assessed as inhibition of proliferation by SRB method. The experiment is classed as functional, cell-based. To be noted: L02.
For the compound `CC1=C(C)[C@H]2[C@H](Cc3ccccc3)NC(=O)[C@]23[C@H](O)/C=C/[C@H](C)C(=O)[C@@H](C)C/C=C/[C@H]3C1=O`, the concentration for half-maximal inhibition (IC50) was found to be 29.8 µM.
Still for that read-out and setting: next, `CC1=C(C)[C@H]2[C@H](Cc3ccccc3)NC(=O)[C@]23[C@H](O)/C=C/[C@@](C)(O)C(=O)[C@@H](C)C/C=C/[C@H]3[C@@H]1O` [DEACETYLCYTOCHALASIN C]: 31.1 µM; `C=C1[C@@H](C)[C@H]2[C@H](Cc3ccccc3)NC(=O)[C@]23[C@H](O)/C=C/[C@@](C)(O)C(=O)[C@@H](C)C/C=C/[C@H]3[C@@H]1O` [ZYGOSPORIN D]: 30.2 µM.
The same measure, in the same setting: next, `CC1=C(C)[C@H]2[C@H](Cc3ccccc3)NC(=O)[C@]23[C@H](O)/C=C/[C@H](C)C(=O)[C@@H](C)C/C=C/[C@H]3[C@@H]1O`: 35.7 µM; `CC1=C[C@@H]2/C=C/C[C@H](C)C(=O)[C@](C)(O)/C=C/[C@@H](O)[C@]23C(=O)N[C@@H](Cc2ccccc2)[C@@H]3[C@H]1C`: 30.9 µM.

In a further experiment the test system is MRC5. Briefly: Cytotoxicity against human MRC5 cells assessed as inhibition of proliferation by SRB method. It is filed as cell-based.
Conditions: not given
For the compound `CC1=C(C)[C@H]2[C@H](Cc3ccccc3)NC(=O)[C@]23[C@H](O)/C=C/[C@H](C)C(=O)[C@@H](C)C/C=C/[C@H]3C1=O`, the IC50 is over 200 µM.
Still for that read-out and setting: next, `CC1=C(C)[C@H]2[C@H](Cc3ccccc3)NC(=O)[C@]23[C@H](O)/C=C/[C@@](C)(O)C(=O)[C@@H](C)C/C=C/[C@H]3[C@@H]1O` [DEACETYLCYTOCHALASIN C]: over 200 µM; `C=C1[C@@H](C)[C@H]2[C@H](Cc3ccccc3)NC(=O)[C@]23[C@H](O)/C=C/[C@@](C)(O)C(=O)[C@@H](C)C/C=C/[C@H]3[C@@H]1O` [ZYGOSPORIN D]: over 200 µM.
On the same count and under the same terms, next, `CC1=C(C)[C@H]2[C@H](Cc3ccccc3)NC(=O)[C@]23[C@H](O)/C=C/[C@H](C)C(=O)[C@@H](C)C/C=C/[C@H]3[C@@H]1O`: over 200 µM; `CC1=C[C@@H]2/C=C/C[C@H](C)C(=O)[C@](C)(O)/C=C/[C@@H](O)[C@]23C(=O)N[C@@H](Cc2ccccc2)[C@@H]3[C@H]1C`: over 200 µM.
